Experiments:
[1] = tested on: phosphorylation of threonine 202 (Thr202) and tyrosine 204 (Tyr204) of ERK; test: ERK phosphorylation inhibitory effect by Cell ELISA in AsPC-1 (Test Example 2); type: cell-based, human; conditions: Homo sapiens, ASPC1, AsPC-1 cells, cultured overnight with compound; 1 μM trametinib taken as 0%
Procedure: Test Example 2: Evaluation of ERK Phosphorylation Inhibitory Effect on Human G12D Mutant KRAS-Positive Pancreatic Cancer Line AsPC-1
The ERK phosphorylation inhibitory effect of test compounds was evaluated by measuring phosphorylation of threonine 202 (Thr202) and tyrosine 204 (Tyr204) of ERK located downstream of the KRAS signal by Cell ELISA.
AsPC-1 cells were seeded on 384-well plates at 36 μL/well to give 2.0×10^4 cells per well. As for the cell culture conditions, RPMI 1640 medium containing 10% fetal bovine serum was used in the presence of 5% CO2 at 37° C.
The next day, the test compounds (10 points having final concentrations in the range of 10 μM to 0.3 nM), trametinib (MEK inhibitor) of a final concentration of 1 μM as positive control and DMSO, which was the solvent for the test compounds, as negative control were diluted 100-fold with a fresh medium and were added at 4 μL per well. The cells were cultured overnight. After culturing, 30% glyoxal solution (40% glyoxal [from Nacalai Tesque] was diluted with PBS) was quickly added at 30 μL per well, and the plate was allowed to stand for 60 minutes at room temperature to thus immobilize the cells. Then, the plate was centrifuged to remove the supernatant (using a centrifugal dehydrator machine, the supernatant was removed by the same method hereinafter), and 0.1% Triton X-100-containing PBS was added at 20 μL per well. After allowing to stand for 10 minutes at room temperature, the supernatant was removed, and the same operation was further repeated. Next, 0.5% SDS-containing PBS was added at 20 μL per well, and after allowing to stand at room temperature for 30 minutes, the supernatant was removed. Subsequently, blocking solution (Intercept Blocking Buffer) was added at 20 μL per well, and the plate was allowed to stand for 1 hour at room temperature. The supernatant was removed, and an ERK (Thr202/Tyr204) phosphorylation antibody (Phospho-p44/42 MAPK (Erk 1/2) (Thr202/Tyr204) (D13.14.4E) XP Rabbit mAb; from Cell Signaling Technology) diluted 2,500-fold with blocking solution was added at 15 μL per well as a primary antibody. The plates were allowed to stand at 4° C. overnight.
The next day, the supernatant was removed. 0.05% Tween-20 (from Thermo Fisher Scientific)-containing PBS was added at 50 μL per well, and the supernatant was removed to thus wash each well. The washing was performed three times in total. After washing, Goat anti-Rabbit IgG H&L (IRDye 800CW) diluted 1,000-fold with blocking solution was added at 15 μL per well as a secondary antibody, and the plates were allowed to stand for 1 hour at room temperature. The supernatant was removed, and each well was washed three times with 0.05% Tween-20-containing PBS in the same manner as after the primary antibody reaction. After removing the supernatant, the plates were dried with air at room temperature for 3 hours or more, and the 800-nm fluorescent signals were measured with Aerius.
With the signaling value at the time of addition of DMSO taken as 100% and with the signaling value at the time of addition of 1 μM trametinib taken as 0%, the 50% inhibitory concentration values (IC50) were calculated by Sigmoid-Emax nonlinear regression analysis.

[2] = tested on: human G12D mutant KRAS-positive pancreatic cancer line AsPC-1; test: Non-anchorage-dependent cell growth inhibition, spheroid 3D cell culture (Test Example 3); type: cell-based; conditions: Homo sapiens, ASPC1, 144 h, AsPC-1 spheroid 3D culture, 6 days, CellTiter Glo 2.0
Procedure: Test Example 3: Evaluation of Non-Anchorage-Dependent Cell Growth Inhibitory Effect on Human G12D Mutant KRAS-Positive Pancreatic Cancer Line AsPC-1
The non-anchorage-dependent cell growth inhibitory effect of test compounds was evaluated by spheroid 3D cell culture.
AsPC-1 cells were seeded on low-cell-adhesive round bottom 384-well plates (PrimeSurface: from Sumitomo Bakelite) at 36 μL/well to give 5×10^2 cells per well. As for the cell culture conditions, RPMI 1640 medium containing 10% fetal bovine serum was used in the presence of 5% CO2 at 37° C.
The next day, the test compounds (10 or 6 points having final concentrations in the range of 10 μM to 0.3 nM) and DMSO, which was the solvent for the test compounds, as a negative control were diluted 100-fold with a fresh medium and were added at 4 μL per well. After culturing in the presence of 5% CO2 at 37° C. for 6 days, CellTiter Glo 2.0 (from Promega) was added at 20 μL per well. After stirring with a plate mixer (from FINEPCR) at room temperature for 1 hour, the luminescent signals were measured with ARVO X3 (from PerkinElmer).
With the signaling value in treatment with DMSO taken as 100% and with the signaling value in the medium alone without cells taken as 0%, the 50% inhibitory concentration values (IC50) were calculated by Sigmoid-Emax nonlinear regression analysis.

KRAS G12D protein = target: T1, KRAS G12D protein (Homo sapiens, UniProt P01116, G12D); test: KRAS degradation activity by Cell ELISA in AsPC-1 (Test Example 1); type: cell-based; conditions: AsPC-1 cells, cultured overnight with compound, corrected with β-actin, read-out: DC50 (50% degradation concentration of the amounts of KRAS)
T1 construct: host or cells: AsPC-1
T1 sequence (P01116 1-188 isoform P01116-2 G12D): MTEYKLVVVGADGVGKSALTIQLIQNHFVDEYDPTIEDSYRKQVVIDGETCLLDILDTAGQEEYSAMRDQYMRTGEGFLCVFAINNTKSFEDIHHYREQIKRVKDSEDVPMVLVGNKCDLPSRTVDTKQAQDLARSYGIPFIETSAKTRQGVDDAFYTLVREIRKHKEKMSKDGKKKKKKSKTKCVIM
Procedure: Test Example 1: Evaluation of KRAS Degradation Activity on Human G12D Mutant KRAS-Positive Pancreatic Cancer Line AsPC-1 (CRL-1682; ATCC)
The KRAS degradation activity of test compounds was evaluated by measuring the expression levels of KRAS G12D protein by Cell ELISA.
AsPC-1 cells were seeded at 20 μL per well on 384-well plates (from Greiner bio-one) to give 2.0×10^4 cells per well. As for the cell culture conditions, RPMI 1640 (from Sigma-Aldrich) medium containing 10% fetal bovine serum (from Cytiva) was used in the presence of 5% CO2 at 37° C.
The next day, the test compounds (10 points having final concentrations in the range of 10 μM to 0.3 nM) and DMSO (from FUJIFILM Wako Pure Chemical Corporation), which was the solvent for the test compounds, as a negative control were diluted 500-fold with a fresh medium and were added at 20 μL per well. The cells were cultured overnight.
The next day, the culture supernatant was removed, and 4% paraformaldehyde phosphate buffer (from FUJIFILM Wako Pure Chemical Corporation) was added at 20 μL per well. The plates were allowed to stand for 30 minutes at room temperature to thus immobilize the cells. Then, the supernatant was removed, and 0.1% Triton X-100 (from Amersham Biosciences)-containing Phosphate buffered saline (PBS; from FUJIFILM Wako Pure Chemical Corporation) was added at 20 μL per well. After allowing to stand for 10 minutes at room temperature, the supernatant was removed. PBS was added at 25 μL per well, and the supernatant was removed to thus wash each well. The washing was performed twice in total. Next, the supernatant was removed, and 0.5% sodium dodecyl sulfate (SDS; from Invitrogen)-containing PBS was added at 20 μL per well. After allowing to stand at room temperature for 10 minutes, the supernatant was removed by a centrifugal operation (using a centrifugal dehydrator machine, the supernatant was removed by the same method hereinafter). PBS was added at 25 μL per well, and the supernatant was removed to thus wash each well. The washing was performed twice in total. The supernatant was removed, and blocking solution (Intercept Blocking Buffer; from Li-COR Biosciences) was added at 20 μL per well. After allowing to stand for 30 minutes at room temperature, the supernatant was removed, and a solution obtained by diluting anti-β-actin antibody (Anti-beta Actin antibody [mAbcam 8226]-Loading Control; from abcam) 1,000-fold with blocking solution and a solution obtained by diluting anti-Ras (G12D Mutant Specific) antibody (Ras (G12D Mutant Specific) (D8H7) Rabbit mAb #14429; from Cell Signaling Technology) and anti-β-actin antibody (from abcam) 1,000-fold with blocking solution were respectively added to positive control wells and the other wells at 20 μL per well as a primary antibody. The plate was allowed to stand overnight at 4° C.
The next day, the supernatant was removed. PBS was added at 25 μL per well, and the supernatant was removed to thus wash each well. The washing was performed twice in total. The supernatant was removed, and a solution obtained by diluting Donkey anti-Mouse IgG H&L (IRDye 680RD) (from Li-COR Biosciences) and Goat anti-Rabbit IgG H&L (IRDye 800CW) (from Li-COR Biosciences) 1,000-fold with blocking solution was added at 20 μL per well as a secondary antibody. After allowing to stand for 1 hour at room temperature, the supernatant was removed. PBS was added at 25 μL per well, and the supernatant was removed to thus wash each well. The washing was performed twice in total. After removing the supernatant, the plate was dried with air at room temperature for 2 hours or more, and the 700 nm and 800 nm fluorescent signals were measured with Aerius (from Li-COR Biosciences). […]

Row | SMILES | IC50 [1] [nM] | IC50 [2] [nM] | DC50 (KRAS G12D protein) [nM]
1 | Cc1ncsc1-c1ccc([C@H](CO)NC(=O)[C@@H]2C[C@@H](O)CN2C(=O)[C@H](C(C)C)n2cc(-c3ccc(COc4c(-c5c(C)c(F)cc6[nH]ncc56)c(C5CC5)cc5c(OC6CNC6)nc(OC6CCOCC6)nc45)cc3)nn2)cc1 (atropisomer, axis not shown; (M)) [Example 2, (4R)-1-[(2S)-2-(4-{4-[({(7M)-4-[(azetidin-3-yl)oxy]-6-cyclopropyl-7-(6-fluoro-5-methyl-1H-indazol-4-yl)-2-[(oxan-4-yl)oxy]quinazolin-8-yl}oxy)methyl]phenyl}-1H-1,2,3-triazol-1-yl)-3-methylbutanoyl]-4-hydroxy-N-{(1R)-2-hydroxy-1-[4-(4-methyl-1,3-thiazol-5-yl)phenyl]ethyl}-L-prolinamide] | 9 | 92 | 20
2 | CO[C@@H](C)COc1nc(N[C@@H]2CCNC2)c2cc(C3CC3)c(-c3c(C)c(F)cc4[nH]ncc34)c(OCc3ccc(-c4cn([C@H](C(=O)N5C[C@H](O)C[C@H]5C(=O)N[C@@H](CO)c5ccc(-c6scnc6C)cc5)C(C)C)nn4)cc3)c2n1 (atropisomer, axis not shown) [Example 51] | 59 | 44 | 14
3 | CCn1nccc1-c1ccc([C@H](CO)NC(=O)[C@@H]2C[C@@H](O)CN2C(=O)[C@H](C(C)C)n2cc(-c3ccc(COc4c(-c5c(C)c(F)cc6[nH]ncc56)c(C5CC5)cc5c(N(C)[C@H]6CCNC6)nc(OC[C@@H]6CCCO6)nc45)cc3)nn2)cc1 (atropisomer, axis not shown) [Example 26] | 2 | 3 | 22
4 | CO[C@@H](C)COc1nc(N[C@H]2CCNC2)c2cc(C3CC3)c(-c3c(C)c(F)cc4[nH]ncc34)c(OCc3ccc(-c4cn([C@H](C(=O)N5C[C@H](O)C[C@H]5C(=O)N[C@@H](CO)c5ccc(-c6scnc6C)cc5)C(C)C)nn4)cc3)c2n1 (atropisomer, axis not shown) [Example 6] | 5 | 8 | 24
5 | Cc1ncsc1-c1ccc([C@H](CO)NC(=O)[C@@H]2C[C@@H](O)CN2C(=O)[C@H](C(C)C)n2cc(-c3ccc(COc4c(-c5c(C)c(F)cc6[nH]ncc56)c(C5CC5)cc5c(N(C)[C@H]6CCNC6)nc(OCC(C)C)nc45)cc3)nn2)cc1 (atropisomer, axis not shown) [Example 34] | 21 | 13 | 53
6 | CO[C@@H](C)COc1nc(O[C@H]2CCNC2)c2cc(C3CC3)c(-c3c(C)c(F)cc4[nH]ncc34)c(OCc3ccc(-c4cn([C@H](C(=O)N5C[C@H](O)C[C@H]5C(=O)N[C@@H](CO)c5ccc(-c6scnc6C)cc5)C(C)C)nn4)cc3)c2n1 (atropisomer, axis not shown) [Example 5] | 12 | 10 | 9
7 | Cc1ncsc1-c1ccc([C@H](CO)NC(=O)[C@@H]2C[C@@H](O)CN2C(=O)[C@H](C(C)C)n2cc(-c3ccc(COc4c(-c5c(C)c(F)cc6[nH]ncc56)c(C5CC5)cc5c(N(C)[C@H]6CCNC6)nc(O[C@@H](C)[C@H](C)O)nc45)cc3)nn2)cc1 (atropisomer, axis not shown) [Example 19] | 95 | 50 | 91
8 | CO[C@@H](C)COc1cc(N2C[C@@H]3C[C@H]2CN3)c2cc(C3CC3)c(-c3c(C)c(F)cc4[nH]ncc34)c(OCc3ccc(-c4cn([C@H](C(=O)N5C[C@H](O)C[C@H]5C(=O)N[C@@H](CO)c5ccc(-c6scnc6C)cc5)C(C)C)nn4)cc3)c2n1 [Example 55] | 4 | 15 | 10
9 | Cc1ncsc1-c1ccc([C@H](CO)NC(=O)[C@@H]2C[C@@H](O)CN2C(=O)[C@H](C(C)C)n2cc(-c3ccc(COc4c(-c5c(C)c(F)cc6[nH]ncc56)c(C5CC5)cc5c(N(C)[C@H]6CCNC6)nc(OC[C@@H]6CCOC6)nc45)cc3)nn2)cc1 (atropisomer, axis not shown) [Example 23] | 13 | 12 | 31
